Results reported in US5985926A, “Method for inhibiting intracellular viral replication” (Cell Therapeutics, Inc., priority 1997, dated 1999).
Read-outs that look alike come from different tables or passages of the source.

Columns and labels:
[1] = tested on: HIV-1 in U1 cells (IL-6 mediated expression); assay: IL-6-mediated HIV-1 p24 antigen expression in chronically infected U1 cells; format: cell-based, HIV-1; human cells
Experimental: FIG. 17 illustrates a dose response curves of CT2576 on constitutive, TNF-α, and IL-6-mediated expression of HIV-1 in a chronically infected U1 cell line (left Y-axis) and of CT3537 on HIV expression in PBL acutely infected with the JR-CSF primary isolate (right Y-axis). U1 cells were incubated for four days after the addition of CT2576 with or without TNF-α (20 pg/ml) or IL-6 (1 ng/ml). PBL were inoculated with HIV at 10 ng virus/10^6 cells/well and incubated with various concentrations of CT3537 for 7 days. Each data point represents the average expression levels of HIV-1 p24-antigen in the cell supernatants measured by ELISA from triplicate samples with error bar indicating the SD.
Stable cell lines 293tar, 293tat and 293tat2 were generated by transfections using conditions described in (Tate et al., FASEB J. 4:227-231, 1990) with the plasmid pHIV.AP alone or along with either pHIV.tat or pSV2tat72, respectively. The assay of HIV-1 p24 antigen expression in the chronically HIV-1-infected promonocytic line U1 after 4 days and in acutely infected peripheral blood lymphocytes (PBL) after 7 days were described (Peterson et al., J. Clin. Invest. 89:574-580, 1992, and Brighty et al., Proc Natl. Acad. Sci. USA 88:7802-7805, 1991).
This example illustrates that CT2576 inhibited both constitutive and cytokine-induced HIV expression in a chronically-infected U1 cell line. A chronically HIV-1 infected human promonocyte cell line, U1 (Poli et al., J. Exp. Med. 172:151-158, 1990), was used as a model to see if the inhibitory effect of CT2576 on HIV-LTR driven reporter gene expression could be extended to block HIV replication per se in infected cells. TNF-α and IL-6 have been reported to upregulate the expression of HIV-1 in U1 cells (Poli et al., Proc Natl. Acad. Sci. USA 91:108-112, 1994). U1 cells were plated onto 24-well microtiter plates to study the dose-response effect of CT2576 on the constitutive (10^4 cells/well), TNF-α or IL-6 mediated (2×10^3 cells/well) expression of HIV-1. […]

293tat cells = assay: Viability of 293tat cells, Alamar Blue; format: cell-based, human
Experimental: 293tat cells, a cell line stably transfected with the expression plasmids pHIV.AP and pHIV.tat, were plated onto 96-well microtiter plates at 2000 cells per well. The media were changed the next day and CT2576 was added at the indicated concentrations to the fresh media with or without TNF-α (20 ng/ml). 2 μl of medium from each well was used for AP assay 24 hr later. After culture media were withdrawn for AP assay, cytotoxicity was measured for the same cell cultures using an indicator dye, Alamar Blue™, that would change color in response to the reduction potential of cell medium due to cell growth. The left y-axis refers to the absorbance value of the reduced form of Alamar Blue™ at 570 nm with the background absorbance at 600 nm from the oxidized form of Alamar Blue™ subtracted. Each data point represents the mean of triplicate samples with error bar indicating the standard deviation of the mean.
The effect of CT2576 on HIV promoter activity in 293tat cells, with the HIV.AP construct cotransfected with pHIV.tat, is shown in FIG. 15. CT2576 inhibited AP reporter gene expression by 50% with an inhibition constant (IC50) in the range of 10 μM with or without TNF-α induction. The inhibition of AP expression is the result of two events: a decrease in AP expression and a decrease in tat expression and therefore lower tat protein levels for transactivation. […]

[2] = tested on: PA formation in EB293 cells; assay: PA and lyso (bis) PA species in TNF-stimulated EB293 cells (HPLC peaks D and A5); format: cell-based, human; conditions: CT2576 10 μM, TNF 20 ng/ml
Excerpt: One must first quantitatively and qualitatively separate PAs from the other lipids found in serum by a chemical extraction of lipids and high performance liquid chromatography (HPLC) to separate and detect PAs. Chemical extraction can be accomplished, for example, by the method of Bligh et al. (Canadian J. Biochem. Physiol. 37:911-917, 1959) or that of Folch et al. (J. Biol. Chem. 226:497-509, 1957). Briefly, the method of Bligh et al. involves an organic extraction of lipids from biological tissue homogenates or fluids. One volume of sample and three volumes of methanol:chloroform (2:1) are vigorously shaken for 2 min. One volume of chloroform is added and then shaken vigorously for 30 sec. One volume of water is added and then shaken vigorously for 30 sec. The mixture is filtered and the upper aqueous layer is discarded. The lower organic layer contains a mixture of lipid classes. The method of Folch et al. involves the extraction of lipids from biological tissue homogenates or body fluids. One volume of sample plus 20 volumes of chloroform:methanol (2:1) are vigorously shaken for 2 min. The mixture is filtered and an amount of 0.1 N KCl equal to 20% of the extraction mixture volume is added and the mixture is shaken vigorously for 2 min. The aqueous and organic phases are allowed to separate. The upper aqueous layer is discarded. […]

Structure (SMILES): CCCCCCCCNCC(O)CCCCCCCCCN1C(=O)CCN(C)C1=O (centres unmarked) [CT1829, 3-(11-octylamino-10-hydroxyundecyl)-1-methyldihydrouracil]
- effect on cell viability / cytotoxicity (293-EBNA cells): minimal cytotoxic effects

Structure (SMILES): CCCCCCCCNCC(O)CCCCCCCCCn1c(=O)c2c(ncn2C)n(C)c1=O (centres unmarked) [CT2576, 1-(11-octylamino-10-hydroxyundecyl)-3,7-dimethylxanthine]
- IC50 ([1]; Human immunodeficiency virus 1, 96 h, read-out: IC50, IL-6 mediated HIV expression, U1 cells, 4 days): ~1000 nM
- IC50 ([1]; U1 cells, 4 days, read-out: IC50, IL-6 mediated HIV expression): < 1000 nM
- inhibition of IL-6 mediated HIV-1 expression (p24) ([1]; U1 cells, in words): inhibited
- cytotoxic concentration (not cytotoxic at concentrations up to), 293tat cells (293tat cells; Alamar Blue): > 32 µM
- cytotoxic effect, 293tat cells (293tat cells; in words): minimal cytotoxic effect
- PA mass (peak D), TNF-stimulated EB293 cells [2]: reduced PA mass across all time points measured
- lyso (bis) PA species (peak A5), TNF-stimulated EB293 cells [2]: increased lyso (bis) PA species across all time points
